In the NIST ThermoML archive (doi:10.1021/acs.jced.8b00008):
Numbers after ± are expanded uncertainties.

Test: xn = mol fraction of the nth substance listed
Details: for viscosity / speed of sound / mass density: 102 kPa, Liquid; for viscosity: Concentric cylinders viscometry; for speed of sound: Single path-length method; for mass density: Vibrating tube method; for surface tension liquid-gas: 296 K, Pendant drop shape

CCC1CCCCC1 [ethylcyclohexane] + CCCCCCCCCCCCCCCC
Details | mass density [kg/m3] | speed of sound [m/s] | viscosity [mPa·s]
293.15 K, x1 = 0.0997 | 773.92 ± 0.32 | 1353.2 ± 0.5 | 3.17 ± 0.02
293.15 K, x1 = 0.1997 | 774.6 ± 0.32 | 1348.2 ± 0.5 | 2.87 ± 0.02
293.15 K, x1 = 0.3 | 775.39 ± 0.32 | 1343.1 ± 0.5 | 2.57 ± 0.02
293.15 K, x1 = 0.4 | 776.26 ± 0.32 | 1337.8 ± 0.5 | 2.26 ± 0.02
293.15 K, x1 = 0.4999 | 777.42 ± 0.32 | 1331.4 ± 0.6 | 1.99 ± 0.01
293.15 K, x1 = 0.55 | 778.05 ± 0.32 | 1328.1 ± 0.5 | 1.89 ± 0.01
293.15 K, x1 = 0.6 | 778.71 ± 0.32 | 1325.3 ± 0.5 | 1.73 ± 0.01
293.15 K, x1 = 0.7001 | 780.35 ± 0.32 | 1317.5 ± 0.5 | 1.48 ± 0.02
293.15 K, x1 = 0.8003 | 782.34 ± 0.32 | 1309.8 ± 0.5 | 1.25 ± 0.01
293.15 K, x1 = 0.9 | 784.8 ± 0.32 | 1301.6 ± 0.5 | 1.04 ± 0.01
303.15 K, x1 = 0.0997 | 766.96 ± 0.32 | 1315.5 ± 0.5 | 2.54 ± 0.02
303.15 K, x1 = 0.1997 | 767.62 ± 0.32 | 1310.3 ± 0.5 | 2.33 ± 0.02
303.15 K, x1 = 0.3 | 768.36 ± 0.32 | 1305.1 ± 0.5 | 2.1 ± 0.01
303.15 K, x1 = 0.4 | 769.18 ± 0.32 | 1299.6 ± 0.5 | 1.87 ± 0.01
303.15 K, x1 = 0.4999 | 770.25 ± 0.32 | 1292.9 ± 0.5 | 1.67 ± 0.01
303.15 K, x1 = 0.55 | 770.84 ± 0.32 | 1289.4 ± 0.5 | 1.58 ± 0.01
303.15 K, x1 = 0.6 | 771.45 ± 0.32 | 1286.4 ± 0.5 | 1.46 ± 0.01
303.15 K, x1 = 0.7001 | 772.96 ± 0.32 | 1277.9 ± 0.5 | 1.27 ± 0.01
303.15 K, x1 = 0.8003 | 774.78 ± 0.32 | 1269.5 ± 0.5 | 1.07 ± 0.01
303.15 K, x1 = 0.9 | 777.02 ± 0.32 | 1260.2 ± 0.5 | 0.896 ± 0.012
313.15 K, x1 = 0.0997 | 760.01 ± 0.32 | 1278.6 ± 0.5 | 2.07 ± 0.01
313.15 K, x1 = 0.1997 | 760.63 ± 0.32 | 1273.4 ± 0.5 | 1.9 ± 0.01
313.15 K, x1 = 0.3 | 761.32 ± 0.32 | 1268 ± 0.5 | 1.74 ± 0.01
313.15 K, x1 = 0.4 | 762.08 ± 0.32 | 1262.2 ± 0.5 | 1.56 ± 0.01
313.15 K, x1 = 0.4999 | 763.06 ± 0.32 | 1255.2 ± 0.5 | 1.4 ± 0.01
313.15 K, x1 = 0.55 | 763.61 ± 0.32 | 1251.5 ± 0.5 | 1.34 ± 0.01
313.15 K, x1 = 0.6 | 764.16 ± 0.32 | 1248.3 ± 0.5 | 1.24 ± 0.01
313.15 K, x1 = 0.7001 | 765.54 ± 0.32 | 1239.2 ± 0.5 | 1.08 ± 0.01
313.15 K, x1 = 0.8003 | 767.19 ± 0.32 | 1230 ± 0.5 | 0.93 ± 0.02
313.15 K, x1 = 0.9 | 769.2 ± 0.32 | 1219.7 ± 0.5 | 0.782 ± 0.012
323.15 K, x1 = 0.0997 | 753.07 ± 0.32 | 1242.7 ± 0.5 | 1.73 ± 0.01
323.15 K, x1 = 0.1997 | 753.64 ± 0.32 | 1237.2 ± 0.5 | 1.595 ± 0.013
323.15 K, x1 = 0.3 | 754.28 ± 0.32 | 1231.6 ± 0.5 | 1.46 ± 0.01
323.15 K, x1 = 0.4 | 754.97 ± 0.32 | 1225.6 ± 0.5 | 1.34 ± 0.01
323.15 K, x1 = 0.4999 | 755.86 ± 0.32 | 1218.3 ± 0.5 | 1.21 ± 0.01
323.15 K, x1 = 0.55 | 756.35 ± 0.32 | 1214.3 ± 0.5 | 1.15 ± 0.01
323.15 K, x1 = 0.6 | 756.84 ± 0.32 | 1211 ± 0.5 | 1.09 ± 0.01
323.15 K, x1 = 0.7001 | 758.08 ± 0.32 | 1201.2 ± 0.5 | 0.948 ± 0.012
323.15 K, x1 = 0.8003 | 759.55 ± 0.32 | 1191.3 ± 0.5 | 0.822 ± 0.021
323.15 K, x1 = 0.9 | 761.34 ± 0.32 | 1180 ± 0.5 | 0.693 ± 0.011
333.15 K, x1 = 0.0997 | 746.13 ± 0.32 | 1207.7 ± 0.5 | 1.46 ± 0.01
333.15 K, x1 = 0.1997 | 746.63 ± 0.32 | 1202.1 ± 0.5 | 1.355 ± 0.013
333.15 K, x1 = 0.3 | 747.21 ± 0.32 | 1196.2 ± 0.5 | 1.25 ± 0.01
333.15 K, x1 = 0.4 | 747.82 ± 0.32 | 1189.9 ± 0.5 | 1.16 ± 0.01
333.15 K, x1 = 0.4999 | 748.62 ± 0.32 | 1182.3 ± 0.5 | 1.03 ± 0.01
333.15 K, x1 = 0.55 | 749.06 ± 0.32 | 1178 ± 0.5 | 0.99 ± 0.01
333.15 K, x1 = 0.6 | 749.49 ± 0.32 | 1174.6 ± 0.5 | 0.937 ± 0.012
333.15 K, x1 = 0.7001 | 750.57 ± 0.32 | 1164.1 ± 0.5 | 0.821 ± 0.012
333.15 K, x1 = 0.8003 | 751.86 ± 0.32 | 1153.4 ± 0.5 | 0.716 ± 0.011
333.15 K, x1 = 0.9 | 753.41 ± 0.32 | 1141.2 ± 0.5 | 0.607 ± 0.011

Details | surface tension liquid-gas [mN/m]
x1 = 0.0997 | 26.8 ± 0.3
x1 = 0.1997 | 26.7 ± 0.3
x1 = 0.3 | 26.4 ± 0.3
x1 = 0.4 | 26.2 ± 0.3
x1 = 0.4999 | 26.3 ± 0.3
x1 = 0.55 | 26.2 ± 0.3
x1 = 0.6 | 26 ± 0.3
x1 = 0.7001 | 25.9 ± 0.3
x1 = 0.8003 | 25.7 ± 0.3
x1 = 0.9 | 25.4 ± 0.3
